According to ChEMBL document CHEMBL5528062 (J Med Chem, 2024):
Values after ≈ are worked out from the molar mass of the structure shown.

Tests used:
[1] = Aqueous solubility of compound at pH 7.4 measured for 1 hr by UV-plate reader analysis; type: physicochemical; settings: buffer
[2] = system: Mycobacterium tuberculosis; assay: Antibacterial activity against Mycobacterium tuberculosis H37Rv assessed as bacterial growth inhibition; type: functional
[3] = system: Mycolicibacterium smegmatis; assay: Antimycobacterial activity against Mycobacterium smegmatis 700084 assessed as inhibition of microbial growth incubated for 48 hrs by resazurin dye based broth microdilution method; type: functional
[4] = system: Acinetobacter baumannii; assay: Antibacterial activity against Acinetobacter baumannii harboring RpoB H535Q mutant assessed as fold change in MIC incubated for 20 hrs by CLSI based microbroth dilution method; type: functional
[5] = system: Mycolicibacterium smegmatis; assay: Antimycobacterial activity against Mycobacterium smegmatis ATCC607 assessed as inhibition of bacterial growth measured after 48 hrs by broth microdilution method; type: functional
[6] = system: Mycobacterium tuberculosis; assay: Antimycobacterial activity against Mycobacterium tuberculosis H37Rv assessed as reduction in bacterial cell growth by resazurin reduction method; type: functional
[7] = Aqueous solubility of compound at pH 2.0 measured for 1 hr by UV-plate reader analysis; type: physicochemical; settings: buffer
[8] = Aqueous solubility of compound in PBS at pH 6.5 incubated for 24 hrs by HPLC-MS/MS analysis; type: physicochemical
[9] = system: Mycobacterium avium; assay: Antibacterial activity against Mycobacterium avium ATCC 25291 assessed as inhibition of bacterial growth incubated for 2 to 3 weeks by resazurin dye based assay; type: functional; settings: time 2-3 weeks
[10] = Aqueous solubility of compound at pH 7.4; type: physicochemical; settings: buffer
[11] = system: Mycobacterium tuberculosis; assay: Antimycobacterial activity against Mycobacterium tuberculosis H37Rv assessed as inhibition of bacterial growth incubated for 7 to 14 days by MABA assay; type: functional; settings: time 7-14 day
[12] = Aqueous solubility of compound at pH 7.4 by HPLC-MS/MS analysis; type: physicochemical; settings: buffer
[13] = system: Mycobacterium tuberculosis; assay: Antimycobacterial activity against Mycobacterium tuberculosis K204 assessed as inhibition of bacterial growth measured after 6 days by alamar blue dye based assay; type: functional; settings: K204, 144 h, time 6 day
[14] = system: Mycobacterium tuberculosis; assay: Antimycobacterial activity against Mycobacterium tuberculosis H37Rv mc2 6206 assessed as inhibition of bacterial growth measured after 7 days by visual analysis; type: functional; settings: H37Rv mc2 6206, 168 h, time 7 day
[15] = system: Mycobacterium tuberculosis; assay: Antibacterial activity against Mycobacterium tuberculosis H37Rv assessed as inhibition of bacterial growth incubated for 6 days by microplate alamar blue assay; type: functional; settings: 144 h, time 6 day
[16] = system: Mycobacterium tuberculosis; assay: Antibacterial activity against Mycobacterium tuberculosis H37Rv assessed as reduction in microbial growth; type: functional

SMILES: C[C@]1(COc2ccc(S(=O)(=O)N3CCOCC3)cc2)Cn2cc([N+](=O)[O-])nc2O1
- solubility at 1 h [1]: 20 µg/mL (≈ 47.1 µM)
- MIC [2]: 0.37 µg/mL (≈ 0.872 µM)

SMILES: O=[N+]([O-])c1cn2c(n1)OC[C@@H](OCc1ccc(OC(F)(F)F)cc1)C2 [PRETOMANID]
- MIC [3]: 0.03 µg/mL
- fold change (FC) [4]: >13
- MIC [5]: 0.03 µg/mL (≈ 0.0835 µM)

SMILES: COc1nc2ccc(Br)cc2cc1[C@@H](c1ccccc1)[C@@](O)(CCN(C)C)c1cccc2ccccc12 [BEDAQUILINE]
- MIC [5]: 0.015 µg/mL (≈ 0.027 µM)

SMILES: C[C@]1(CN2CCc3nc(-c4ccccc4)ccc3C2)Cn2cc([N+](=O)[O-])nc2O1
- MIC [6]: < 0.031 µg/mL
- solubility at 1 h [7]: 143 µM (≈ 56.2 µg/mL)
- solubility at 24 h [8]: 9.41 µM (≈ 3.68 µg/mL)

SMILES: O=[N+]([O-])c1cn2c(n1)OC[C@@H](OCc1ccc(-c3ccc(OC(F)(F)F)c(Cl)c3)cc1)C2
- MIC [9]: 0.03 µM (≈ 0.0141 µg/mL)

SMILES: O=[N+]([O-])c1cn2c(n1)OC[C@@H](OCc1ccc(-c3ccc(OC(F)(F)F)c(F)c3)nc1)C2
- solubility [10]: 3 µg/mL (≈ 6.6 µM)
- MIC [11]: 0.025 µM (≈ 0.0114 µg/mL)

SMILES: Cn1nc(-c2ccc(OC(F)(F)F)cc2)cc1CO[C@@H]1COc2nc([N+](=O)[O-])cn2C1
- solubility [12]: 23 µg/mL (≈ 52.4 µM)
- MIC [13]: 0.06 µM (≈ 0.0264 µg/mL)

SMILES: C[C@]1(CN2CCc3nc(-c4cc(F)c(F)c(F)c4)ccc3C2)Cn2cc([N+](=O)[O-])nc2O1
- MIC [6]: 0.08 µg/mL (≈ 0.18 µM)
- solubility at 1 h [7]: > 200 µM
- solubility at 24 h [8]: < 1 µM

SMILES: O=[N+]([O-])c1cn2c(n1)OC[C@@H](OCc1nnn(-c3ccc(OC(F)(F)F)cc3)n1)C2
- MIC [13]: 0.035 µM (≈ 0.015 µg/mL)

SMILES: C[C@]1(COc2ccc(N3CCC(Oc4ccc(OC(F)(F)F)cc4)CC3)cc2)Cn2cc([N+](=O)[O-])nc2O1
- MIC [5]: 0.03 µg/mL (≈ 0.0561 µM)
- MIC [14]: 0.007 µg/mL (≈ 0.0131 µM)

SMILES: O=[N+]([O-])c1cn2c(n1)OC[C@@H](OCc1ccc(-c3ccc(OC(F)(F)F)c(F)c3)cc1)C2
- MIC [9]: 0.03 µM (≈ 0.0136 µg/mL)

SMILES: O=[N+]([O-])c1cn2c(n1)OC[C@@H](OCc1ccn(-c3ccc(OC(F)(F)F)cc3)n1)C2
- MIC [13]: 0.05 µM (≈ 0.0213 µg/mL)

SMILES: COc1nc2ccc(C#N)cc2cc1[C@H](c1ccccc1)[C@](O)(CCN(C)C)c1ccccc1
- MIC [15]: 0.09 µg/mL (≈ 0.199 µM)

SMILES: O=[N+]([O-])c1cn2c(n1)OC[C@@H](OCc1ccc(-c3ccc(OC(F)(F)F)cc3)cc1)C2
- MIC [9]: 0.035 µM (≈ 0.0152 µg/mL)

SMILES: C[C@]1(COc2ccc(-n3cc(COc4ccc(OC(F)(F)F)cc4)nn3)cc2)Cn2cc([N+](=O)[O-])nc2O1
- solubility at 1 h [1]: < 1 µg/mL
- MIC [16]: 0.12 µg/mL

SMILES: C[C@]1(CN2CCc3nc(-c4ccc(F)cc4)ccc3C2)Cn2cc([N+](=O)[O-])nc2O1
- MIC [6]: 0.25 µg/mL (≈ 0.611 µM)
- solubility at 1 h [7]: 130 µM (≈ 53 µg/mL)
- solubility at 24 h [8]: 3.35 µM (≈ 1.37 µg/mL)

SMILES: O=[N+]([O-])c1cn2c(n1)OC[C@@H](OCc1ccc(-c3ccc(OC(F)(F)F)cc3)nc1)C2 [TBA-354]
- solubility [10]: 2.3 µg/mL (≈ 5.27 µM)
- MIC [11]: 0.005 µM (≈ 0.00218 µg/mL)
